Laboratory results from patent US20060069132A1, “Azolecarboxamide herbicides” (priority 2004, published 2006).

Key:
wheat cv. Recital = assay: Test I safening of Compound 6 by Harmony Extra Herbicide, pre-/postemergence; type: in vivo, Triticum aestivum
Method: This test evaluated the safening of Compound 6 on barley (Hordeum vulgare L.) cv. ‘Boone’ and wheat (Triticum aestivum L.) cv. ‘Recital’ by Harmony® Extra Herbicide, which comprises 50 wt % thifensulfuron-methyl and 25 wt % tribenuron-methyl. Barley and wheat seeds were planted in pots containing a pasteurized blend of Matapeake soil and sand. For postemergence testing the plants were grown 10 days so the barley seedlings were at the 2-leaf stage and the wheat seedlings were at the 2-3-leaf stage at time of treatment. Preemergence treatments were applied the day after the seeds were planted. Treatments were applied by spraying Compound 6 and/or […] in a non-phytotoxic solvent mixture, using flat fan nozzle and a spray volume of 280 L/ha. The treatments were triply replicated and the results subsequently averaged. The pots were placed on a greenhouse bench using a complete randomized block design except for the first replicate, which was unrandomized. The plants were grown in the greenhouse and watered as needed with a dilute nutrient solution containing 200 ppm of N. Illumination was daylight supplemented by artificial sources to maintain a photoperiod of 14 hours. The temperature was maintained at 23±2° C. during the day and 17±2° C. at night. The effects of the treatments were rated 25 days after preemergence treatment and 15 days after postemergence treatment. The plant response was visually rated in comparison to untreated controls using a scale of 0 to 100, with 0 representing no effect and 100 representing complete plant death.
Colby's Equation was used to calculate the expected additive herbicidal effect of the mixtures of Compound 6 with Harmony® Extra (i.e. a 2:1 mixture by weight of thifensulfuron-methyl and tribenuron-methyl). Colby's Equation (Colby, S. R. “Calculating Synergistic and Antagonistic Responses of Herbicide Combinations,” Weeds, 15(1), pp 20-22 (1967)) calculates the expected additive effect of herbicidal mixtures, and for two active ingredients is of the form: Pa+b=Pa+Pb−(PaPb/100) wherein • Pa+b is the percentage effect of the mixture expected from additive contribution of the individual components, • Pa is the observed percentage effect of the first active ingredient at the same use rate as in the mixture, and • Pb is the observed percentage effect of the second active ingredient at the same use rate as in the mixture.
The results and additive effects expected from Colby's Equation for the preemergence test are listed in Table I1, and the results and additive effects expected from Colby's Equation for the postemergence test are listed in Table I2.

wheat = assay: Test F pre-/postemergence herbicide test; type: in vivo, Triticum aestivum
Source text: (§1) Seeds of plant species selected from annual blugrass (Poa annua L.), blackgrass (Alopecurus myosuroides Huds.), catchweed bedstraw (Gallium aparine L.), common chickweed (Stellaria media (L.) Vill./Cyr.), downy bromegrass (Bromus tectorum L.), green foxtail (Setaria viridis (L.) Beauv.), Italian ryegrass (Lolium multiflorum Lam.), kochia (Kochia scoparia (L.). Schrad.), lambsquarters (Chenopodium album L.), littleseed canarygrass (Phalaris minor Retz.), pigweed (Amaranthus retroflexus L.), Russian thistle (Salsola kali L. ssp. Ruthenica (Iljin) Soo), wild buckwheat (Polygonum convolvulus L.), wild mustard (Sinapis arvensis L.), wild oat (Avena fatua L.), windgrass (Apera spica-venti (L.) Beauv.), winter barley (Hordeum vulgare L.), and wheat (Triticum aestivum L.) were planted and treated preemergence with test chemicals formulated in a non-phytotoxic solvent mixture which included a surfactant.
(§2) At the same time, plants selected from these crop and weed species were treated with postemergence applications of some of the test chemicals formulated in the same manner. Plants ranged in height from 2 to 18 cm (1- to 4-leaf stage) for postemergence treatments. Treated plants and controls were maintained in a greenhouse for 12 to 14 days, after which time all species were compared to controls and visually evaluated. Plant response ratings, summarized in Table F, are based on a scale of 0 to 100 where 0 is no effect and 100 is complete control. A dash (-) response means no test result.

lambsquarters = assay: Test F pre-/postemergence herbicide test; type: in vivo, Chenopodium album
Source text: as §1, §2

downy bromegrass = assay: Test A pre-/postemergence herbicide test; type: in vivo, Bromus tectorum; conditions: Preemergence, visual rating, 0 to 100 scale (0 no effect, 100 complete control)
Source text: Seeds of plant species selected from barnyardgrass (Echinochloa crus-galli (L.) Beauv.), downy bromegrass (Bromus tectorum L.), large crabgrass (Digitaria sanguinalis (L.) Scop.), giant foxtail (Setaria faberi Herrm.), morningglory (Ipomoea spp.), redroot pigweed (Amaranthus retroflexus L.) and velvetleaf (Abutilon theophrasti Medik.) were planted into a sandy loam soil and treated preemergence with a directed soil spray using test chemicals formulated in a non-phytotoxic solvent mixture which included a surfactant. At the same time plants selected from these species were also treated postemergence by spraying to runoff with test chemicals formulated.
Plants ranged in height from 2 to 10 cm and were in the one- to two-leaf stage for the postemergence treatment. Treated plants and untreated controls were maintained in a greenhouse for approximately ten days, after which time all treated plants were compared to untreated controls and visually evaluated for injury. Plant response ratings, summarized in Table A, are based on a 0 to 100 scale where 0 is no effect and 100 is complete control. A dash (-) response means no test results.

CCn1nc(C(C)(C)C)cc1C(=O)Nc1cc(C(=O)N(C)C)ccc1F [Compound 6, N-[5-[(dimethylamino)carbonyl]-2-fluorophenyl]-3-(1,1-dimethylethyl)-1-ethyl-1H-pyrazole-5-carboxamide]
Wheat Observed effect (wheat cv. Recital; postemergence, Compound 6 16, thifensulfuron-methyl 0, tribenuron-methyl 0 g a.i./ha): 58 | Wheat Observed effect (wheat cv. Recital; postemergence, Compound 6 31, thifensulfuron-methyl 0, tribenuron-methyl 0 g a.i./ha): 65 | Wheat Observed effect (wheat cv. Recital; preemergence, Compound 6 16, thifensulfuron-methyl 0, tribenuron-methyl 0 g a.i./ha): 45 | Wheat Observed effect (wheat cv. Recital; preemergence, Compound 6 31, thifensulfuron-methyl 0, tribenuron-methyl 0 g a.i./ha): 67

CCn1nc(C(C)(C)C)cc1C(=O)Nc1cc(C(=O)OC(C)C)c(F)cc1F [Compound 248]
Plant response rating (0-100), Wheat (wheat; Postemergence, 31 g ai/ha): 0 | Plant response rating (0-100), Wheat (wheat; Postemergence, 62 g ai/ha): 5 | Plant response rating (0-100), Wheat (wheat; Postemergence, 125 g ai/ha): 5 | Plant response rating (0-100), Wheat (wheat; Postemergence, 250 g ai/ha): 20 | Plant response rating (0-100), Wheat (wheat; Preemergence, 31 g ai/ha): 0 | Plant response rating (0-100), Wheat (wheat; Preemergence, 62 g ai/ha): 0 | Plant response rating (0-100), Wheat (wheat; Preemergence, 125 g ai/ha): 0 | Plant response rating (0-100), Wheat (wheat; Preemergence, 250 g ai/ha): 10 | Plant response rating (0-100), Lambsquarters (lambsquarters; Postemergence, 31 g ai/ha): 35 | Plant response rating (0-100), Lambsquarters (lambsquarters; Postemergence, 62 g ai/ha): 60 | Plant response rating (0-100), Lambsquarters (lambsquarters; Postemergence, 125 g ai/ha): 60 | Plant response rating (0-100), Lambsquarters (lambsquarters; Postemergence, 250 g ai/ha): 60 | Plant response rating (0-100), Lambsquarters (lambsquarters; Preemergence, 31 g ai/ha): 40 | Plant response rating (0-100), Lambsquarters (lambsquarters; Preemergence, 62 g ai/ha): 40 | Plant response rating (0-100), Lambsquarters (lambsquarters; Preemergence, 125 g ai/ha): 100 | Plant response rating (0-100), Lambsquarters (lambsquarters; Preemergence, 250 g ai/ha): 100

CC(=NO)c1cccc(NC(=O)c2cc(C(C)(C)C)nn2C)c1 [Compound 102]
Bromegrass, Downy plant response rating (downy bromegrass; 500 g ai/ha): 60 | Bromegrass, Downy plant response rating (downy bromegrass; 2000 g ai/ha): 60
